Reference: US20230365589A1, “NOVEL AMINE DERIVATIVES” (Sumitomo Pharma Co., Ltd., priority 2020, published 2023)
Where two headings read alike, the source gives them in different places.

Tests used:
Format in all cases: biochemical
[1] = molecular target: T1, DYRK2 (Homo sapiens, UniProt Q92630); assay: Inhibition test on activity of DYRK family, mobility shift assay (MSA): DYRK2
T1 construct: purchased Carna Biosciences, Inc. 04-132
T1 sequence (Q92630 74-601 limits assumed): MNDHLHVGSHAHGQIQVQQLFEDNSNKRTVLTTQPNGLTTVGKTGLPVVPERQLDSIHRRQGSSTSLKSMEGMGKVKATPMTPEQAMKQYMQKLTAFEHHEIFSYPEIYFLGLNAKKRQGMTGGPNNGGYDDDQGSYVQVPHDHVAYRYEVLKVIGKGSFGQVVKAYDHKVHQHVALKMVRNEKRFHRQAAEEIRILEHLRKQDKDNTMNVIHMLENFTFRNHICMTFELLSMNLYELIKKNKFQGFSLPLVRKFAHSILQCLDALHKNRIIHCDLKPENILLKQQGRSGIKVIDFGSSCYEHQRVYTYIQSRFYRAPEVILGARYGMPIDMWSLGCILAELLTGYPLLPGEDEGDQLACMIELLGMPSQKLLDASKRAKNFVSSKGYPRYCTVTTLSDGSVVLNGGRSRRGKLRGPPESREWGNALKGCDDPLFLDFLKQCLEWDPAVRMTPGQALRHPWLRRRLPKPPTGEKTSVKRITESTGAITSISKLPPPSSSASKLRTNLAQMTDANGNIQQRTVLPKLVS
How it was run: (§1)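 Mobility-shift readout of FITC-DYRKtide phosphorylation in 20 mM HEPES pH 7.5. The substrate mix held 4 µM peptide, 20 mM MgCl2 and ATP at 100 (1A), 200 (1B), 40 (2) or 20 µM (3). Reaction 1 h at room temperature; IC50 from regression of P/(P+S)-based inhibition vs log concentration.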

[2] = molecular target: T2, DYRK3 (Homo sapiens, UniProt O43781); assay: Inhibition test on activity of DYRK family, mobility shift assay (MSA): DYRK3
T2 construct: purchased Carna Biosciences, Inc. 04-133
T2 sequence (O43781 1-568 isoform O43781-2): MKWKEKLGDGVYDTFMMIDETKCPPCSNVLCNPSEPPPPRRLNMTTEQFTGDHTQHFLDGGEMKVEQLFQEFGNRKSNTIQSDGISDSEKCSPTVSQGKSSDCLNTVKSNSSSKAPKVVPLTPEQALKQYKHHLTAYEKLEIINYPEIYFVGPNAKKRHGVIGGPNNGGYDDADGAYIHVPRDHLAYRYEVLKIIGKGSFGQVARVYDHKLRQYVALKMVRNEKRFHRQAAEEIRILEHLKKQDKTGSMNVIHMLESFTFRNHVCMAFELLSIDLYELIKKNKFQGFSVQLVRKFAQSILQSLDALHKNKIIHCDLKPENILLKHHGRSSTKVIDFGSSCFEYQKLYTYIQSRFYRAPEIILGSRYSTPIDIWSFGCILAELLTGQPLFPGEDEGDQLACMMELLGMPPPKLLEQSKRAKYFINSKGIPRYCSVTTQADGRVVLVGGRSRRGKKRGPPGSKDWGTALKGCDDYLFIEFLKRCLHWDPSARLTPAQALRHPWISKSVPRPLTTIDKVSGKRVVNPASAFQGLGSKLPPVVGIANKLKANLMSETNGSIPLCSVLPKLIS
How it was run: as §1

[3] = molecular target: T3, DYRK1A (Homo sapiens, UniProt Q13627); assay: Inhibition test on activity of DYRK family, mobility shift assay (MSA): DYRK1A
T3 construct: purchased Carna Biosciences, Inc. 04-130
How it was run: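 Mobility shift assay with recombinant DYRK1A (0.2 ng/μL enzyme solution), FITC-DYRKtide substrate (4 μM in substrate mix), 100 μM ATP in substrate mix, HEPES pH 7.5 buffer with MgCl2; 1 h at room temperature. Phosphorylated vs unphosphorylated peptide peaks quantified; IC50 from regression of inhibition rate against log concentration.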

[4] = MSA, FITC-labeled DYRKtide peptide, ATP 40 μM, read-out: Inhibitory activity DYRK 2 (IC50 class)
[5] = MSA, FITC-labeled DYRKtide peptide, ATP 20 μM, read-out: Inhibitory activity DYRK 3 (IC50 class)
[6] = MSA, FITC-labeled DYRKtide peptide, ATP 100 μM, read-out: Inhibitory activity DYRK 1A (IC50 class)
[7] = read-out: Inhibitory activity DYRK 2
[8] = read-out: Inhibitory activity DYRK 3
[9] = read-out: Inhibitory activity DYRK 1A

SMILES | IC50 [1, 4] | IC50 [2, 5] | IC50 [3, 6] | IC50 [1, 7] | IC50 [2, 8] | IC50 [3, 9]
CN1CC[C@@H]2NC(=O)N(c3nc4c5c(ccc4s3)OCC5)[C@@H]2CC1 [Example 67] | ≥ 1000 nM | 100 to 1000 nM | 100 to 1000 nM |  |  | 
CN1CC[C@@H]2[C@@H](NC(=O)N2c2nc3c4c(ccc3s2)OCC4)C12CC2 [Example 68] | ≥ 1000 nM | 100 to 1000 nM | 100 to 1000 nM |  |  | 
CN1C[C@@H]2NC(=O)N(c3nc4c5c(ccc4s3)OCC5)[C@@H]2[C@@H](F)C1 [Example 74] | ≥ 1000 nM | 100 to 1000 nM | 100 to 1000 nM |  |  | 
CN1C[C@@H](F)[C@@H]2NC(=O)N(c3nc4c5c(ccc4s3)OCC5)[C@@H]2C1 [Example 75] | ≥ 1000 nM | ≥ 1000 nM | 10 to 100 nM |  |  | 
CC(C)(C)OC(=O)N1CC(N2CC[C@@H]3NC(=O)N(c4nc5c6c(ccc5s4)OCC6)[C@@H]3C2)C1 [Example 82] | ≥ 1000 nM | ≥ 1000 nM | 10 to 100 nM |  |  | 
CN1CC(N2CC[C@@H]3NC(=O)N(c4nc5c6c(ccc5s4)OCC6)[C@@H]3C2)C1 [Example 83] | ≥ 1000 nM | 100 to 1000 nM | 100 to 1000 nM |  |  | 
CN1CCC[C@@H]2[C@H](C1)NC(=O)N2c1nc2c3c(ccc2s1)OCO3 [Example 84] | 100 to 1000 nM | 100 to 1000 nM | 10 to 100 nM |  |  | 
O=C1N[C@H]2CN(C3CC3)CC[C@H]2N1c1nc2c3c(ccc2s1)OCO3 [Example 87] | 100 to 1000 nM | ≥ 1000 nM | 100 to 1000 nM |  |  | 
O=C1N[C@H]2CN(C3CC3)CC[C@H]2N1c1nc2c3c(ccc2s1)OCCO3 [Example 88] | ≥ 1000 nM | ≥ 1000 nM | 100 to 1000 nM |  |  | 
CN1C[C@@H]2NC(=O)N(c3nc4c5c(ccc4s3)OCC5)[C@@H]2CC12CC2 [Example 89] | ≥ 1000 nM | ≥ 1000 nM | 100 to 1000 nM |  |  | 
CN1C[C@@H]2[C@H](CC13CC3)NC(=O)N2c1nc2c3c(ccc2s1)OCC3 [Example 90] | 100 to 1000 nM | 100 to 1000 nM | 10 to 100 nM |  |  | 
C[C@H]1[C@H]2NC(=O)N(c3nc4c5c(ccc4s3)OCC5)C2CCN1C (stereo partly drawn) [Example 91] | 100 to 1000 nM | 10 to 100 nM | 10 to 100 nM |  |  | 
C[C@H]1C[C@H]2NC(=O)N(c3nc4c5c(ccc4s3)OCC5)C2CN1C (stereo partly drawn) [Example 92] |  |  |  | ≥ 1000 nM | ≥ 1000 nM | 100 to 1000 nM
C[C@H]1C[C@@H]2[C@H](CN1C)NC(=O)N2c1nc2c3c(ccc2s1)OCC3 [Example 93, (3aS,6S,7aR)-1-(7,8-dihydrofuro[3,2-e][1,3]benzothiazol-2-yl)-5,6-dimethyloctahydro-2H-imidazo[4,5-c]pyridin-2-one] |  |  |  | ≥ 1000 nM | 100 to 1000 nM | 10 to 100 nM
C[C@H]1[C@@H]2[C@H](CCN1C)NC(=O)N2c1nc2c3c(ccc2s1)OCC3 [Example 94] |  |  |  | ≥ 1000 nM | ≥ 1000 nM | 100 to 1000 nM
C[C@H]1[C@H]2[C@@H](CCN1C)NC(=O)N2c1nc2c3c(ccc2s1)OCC3 [Example 95] |  |  |  | 100 to 1000 nM | 100 to 1000 nM | 100 to 1000 nM
C[C@@H]1C[C@@H]2NC(=O)N(c3nc4c5c(ccc4s3)OCC5)[C@@H]2CN1C [Example 96] |  |  |  | ≥ 1000 nM | ≥ 1000 nM | 100 to 1000 nM

SMILES | IC50 [1, 4] | IC50 [2, 5] | IC50 [3, 6] | IC50 [1, 7] | IC50 [2, 8] | IC50 [3, 9]
C[C@@H]1[C@@H]2NC(=O)N(c3nc4c5c(ccc4s3)OCC5)[C@@H]2CCN1C [Example 97] |  |  |  | ≥ 1000 nM | ≥ 1000 nM | 100 to 1000 nM
O=C1N[C@H]2CN(C3CC3)C[C@H]2N1c1nc2c3c(ccc2s1)OCC3 [Example 101] |  |  |  | ≥ 1000 nM | ≥ 1000 nM | 10 to 100 nM
C[C@@H]1NC(=O)N(c2nc3c4c(ccc3s2)OCC4)[C@@H]1CN1CC[C@H](F)C1 [Example 115, (4S,5R)-1-(7,8-dihydrofuro[3,2-e][1,3]benzothiazol-2-yl)-5-{[(3S)-3-fluoropyrrolidin-1-yl]methyl}-4-methylimidazolidin-2-one] |  |  |  | 100 to 1000 nM | ≥ 1000 nM | 10 to 100 nM
C[C@@H]1NC(=O)N(c2nc3c4c(ccc3s2)OCC4)[C@@H]1CN1CC(F)(F)C1 [Example 116, (4S,5R)-5-[(3,3-difluoroazetidin-1-yl)methyl]-1-(7,8-dihydrofuro[3,2-e][1,3]benzothiazol-2-yl)-4-methylimidazolidin-2-one] |  |  |  | ≥ 1000 nM | ≥ 1000 nM | 10 to 100 nM
C[C@@H]1NC(=O)N(c2nc3c4c(ccc3s2)OCC4)[C@@H]1CN1CCC(F)(F)C1 [Example 117, (4S,5R)-5-[(3,3-difluoropyrrolidin-1-yl)methyl]-1-(7,8-dihydrofuro[3,2-e][1,3]benzothiazol-2-yl)-4-methylimidazolidin-2-one] |  |  |  | ≥ 1000 nM | ≥ 1000 nM | 10 to 100 nM
C[C@@H]1NC(=O)N(c2nc3c4c(ccc3s2)OCC4)[C@@H]1CN1CC(F)C1 [Example 118, (4S,5R)-1-(7,8-dihydrofuro[3,2-e][1,3]benzothiazol-2-yl)-5-[(3-fluoroazetidin-1-yl)methyl]-4-methylimidazolidin-2-one] |  |  |  | ≥ 1000 nM | ≥ 1000 nM | 10 to 100 nM
CC1(C)C[C@H]2[C@@H](CO1)NC(=O)N2c1nc2c3c(ccc2s1)OCC3 [Example 123] |  |  |  | ≥ 1000 nM | ≥ 1000 nM | ≥ 1000 nM
CC1(C)C[C@@H]2[C@H](CO1)NC(=O)N2c1nc2c3c(ccc2s1)OCC3 [Example 124, (3aR,7aR)-1-(7,8-dihydrofuro[3,2-e][1,3]benzothiazol-2-yl)-6,6-dimethylhexahydropyrano[3,4-d]imidazol-2(3H)-one] |  |  |  | 100 to 1000 nM | 100 to 1000 nM | < 10 nM
O=C1N[C@@H]2CCOC[C@H]2N1c1nc2c3c(ccc2s1)OCC3 [Example 125] |  |  |  | 100 to 1000 nM | 100 to 1000 nM | 10 to 100 nM
O=C1N[C@@H]2COCC[C@H]2N1c1nc2c3c(ccc2s1)OCC3 [Example 126] |  |  |  | 100 to 1000 nM | 100 to 1000 nM | 100 to 1000 nM
N#C[C@H]1C[C@@H]2[C@H](CO1)NC(=O)N2c1nc2c3c(ccc2s1)OCC3 [Example 127, (3aR,6R,7aR)-1-(7,8-dihydrofuro[3,2-e][1,3]benzothiazol-2-yl)-2-oxooctahydropyrano[3,4-d]imidazole-6-carbonitrile] |  |  |  | 100 to 1000 nM | 100 to 1000 nM | < 10 nM
N#C[C@H]1C[C@H]2NC(=O)N(c3nc4c5c(ccc4s3)OCC5)[C@H]2CO1 [Example 128] |  |  |  | ≥ 1000 nM | ≥ 1000 nM | ≥ 1000 nM
CO[C@H]1C[C@@H]2[C@H](CO1)NC(=O)N2c1nc2c3c(ccc2s1)OCC3 [Example 129, (3aR,6R,7aR)-1-(7,8-dihydrofuro[3,2-e][1,3]benzothiazol-2-yl)-6-methoxyhexahydropyrano[3,4-d]imidazol-2(3H)-one] |  |  |  | 100 to 1000 nM | 100 to 1000 nM | 10 to 100 nM
CO[C@H]1C[C@H]2NC(=O)N(c3nc4c5c(ccc4s3)OCC5)[C@H]2CO1 [Example 130] |  |  |  | ≥ 1000 nM | ≥ 1000 nM | 100 to 1000 nM
N#C[C@H]1C[C@@H]2[C@H](CO1)NC(=O)N2c1nc2c3c(ccc2s1)OCO3 [Example 131, (3aR,6R,7aR)-1-(2H-[1,3]dioxolo[4,5-e][1,3]benzothiazol-7-yl)-2-oxooctahydropyrano[3,4-d]imidazole-6-carbonitrile] |  |  |  | 100 to 1000 nM | 100 to 1000 nM | < 10 nM
N#C[C@H]1C[C@H]2NC(=O)N(c3nc4c5c(ccc4s3)OCO5)[C@H]2CO1 [Example 132] |  |  |  | ≥ 1000 nM | ≥ 1000 nM | ≥ 1000 nM
